# Source: US20110286998A1, “METHODS FOR TREATING AND PREVENTING CANCERS THAT EXPRESS THE HYPOTHALAMIC-PITUITARY-GONADAL AXIS OF HORMONES AND RECEPTORS” (Voyager Pharmaceutical Corporation, priority 2001, published 2011)
# Key:
# [1] = both, dog, in vivo, sc, 34 mg
# Method: FIG. 16 presents results of a pharmacokinetic study in which male and female dogs were either injected intramuscularly with a leuprolide depot formulation or implanted subcutaneously with a leuprolide implant formulation.
# Six dogs of each sex were dosed with 60 mg of Lupron Depot® by injection (males—X, females—▴) on day 1. Six dogs of each sex were dosed with single subcutaneous doses (males—▪, females—♦) of 3 DURIN™-Leuprolide 11.3 mg implants (total dose 34 mg) on day 1 and again on day 64. Serum leuprolide levels were determined and plotted against time out to 200 days.
# testosterone = settings: in vivo; cited from earlier work
# [2] = test system: pituitary secretion of LH and FSH; settings: cited from earlier work
# cancer cell lines = type: cell-based
# Method: Cell growth assays were performed as described below. CaOV3 (ATCC HTB-75) cells were plated in Dulbecco's modified Eagle's medium with 4 mM L-glutamine, 1.5 g/L sodium bicarbonate, 0.1 mM non-essential amino acids, and 10% fetal bovine serum. H358 (ATCC CRL-5807) cells were plated in RPMI 1640 medium with 2 mM L-glutamine adjusted to contain 1.5 g/L sodium bicarbonate, 4.5 g/L glucose, 10 mM HEPES, 1.0 mM sodium pyruvate and 10% fetal bovine serum. H838 (ATCC CRL-5844) cells were plated in RPMI 1640 medium with 1.5 g/L sodium bicarbonate, 4.5 g/L glucose, 10 mM HEPES, 1.0 mM sodium pyruvate, 10 U/ml insulin and 10% fetal bovine serum. […]
# For cell growth assays in a 96 well format, different numbers of cells were plated, depending on the cell line (about 2000 cells/well for CaOV3, about 250 cells/well for 786-O, about 500 cells/well for H838 and H358, about 5000 cells/well for T47D and […], about 1000 cells/well for HPAC, ACHN, HT-29, MCF-7 and about 300,000 cells/well for MV4-11). […] The number of cells in each group was measured by incubating cells with WST-8 (2-(2-methoxy-4-nitrophenyl)-3-(4-nitrophenyl)-5-(2,4-disulfophenyl)-2H-tetrazolium, monosodium salt) which produces a water soluble formazan dye that was detected by measuring optical density (at 450 nm) using a μQuant™ Universal Microplate Spectrophotometer (Bio-Tek® Instruments, Inc., Winooski, Vt.).
structure (smiles),measurement,setting,value
CCNC(=O)[C@@H]1CCCN1C(=O)[C@H](CCCNC(=N)N)NC(=O)[C@H](CC(C)C)NC(=O)[C@@H](CC(C)C)NC(=O)[C@H](Cc1ccc(O)cc1)NC(=O)[C@H](CO)NC(=O)[C@H](Cc1c[nH]c2ccccc12)NC(=O)[C@H](Cc1c[nH]cn1)NC(=O)[C@@H]1CCC(=O)N1 [leuprolide acetate],sustained serum levels of leuprolide acetate,[1],5.0 to 8.0 ng/mL
same,serum concentrations required for testosterone suppression,testosterone,less than 1 ng/ml
same,pituitary secretion of LH and FSH,[2]; for several days after initial administration,increase
same,LH and FSH secretion,"[2]; thereafter, pituitary GnRH receptors down-regulated",significant decrease
same,effect on growth of cancer cell lines,cancer cell lines,slows or inhibits growth in a dose dependent manner
same,inhibition rates of cancer cell growth,cancer cell lines; highest dose of leuprolide used in the studies,10-40%
